Data reported in paper PMC7693658, “SaUspA, the Universal Stress Protein of Sulfolobus acidocaldarius Stimulates the Activity of the PP2A Phosphatase and Is Involved in Growth at High Salinity” (Frontiers in Microbiology, 2020).

Assays:
ArnD = molecular target: T1, ArnD (Sulfolobus acidocaldarius, UniProt Q4J879); assay: in vitro phosphorylation, autophosphorylation; format: biochemical; details: 1 mM MnCl2, pH 8, 55°C; labelled compound
T1 construct: gene Saci_1694; purified kinase; expression in E. coli Rosetta (DE3)/pLysS, construct details in earlier work
T1 sequence (Q4J879 1-413): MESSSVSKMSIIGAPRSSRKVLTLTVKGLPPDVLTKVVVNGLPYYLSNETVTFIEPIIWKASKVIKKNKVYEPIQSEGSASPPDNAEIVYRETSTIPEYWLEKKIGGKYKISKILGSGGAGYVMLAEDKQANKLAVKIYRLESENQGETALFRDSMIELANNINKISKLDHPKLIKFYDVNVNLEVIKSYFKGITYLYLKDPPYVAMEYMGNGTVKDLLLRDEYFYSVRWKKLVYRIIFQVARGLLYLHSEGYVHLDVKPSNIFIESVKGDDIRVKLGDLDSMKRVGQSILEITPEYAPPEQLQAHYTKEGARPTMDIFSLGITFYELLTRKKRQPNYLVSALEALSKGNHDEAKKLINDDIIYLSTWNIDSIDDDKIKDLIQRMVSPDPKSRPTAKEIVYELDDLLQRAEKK

ArnC = molecular target: T2, ArnC (Sulfolobus acidocaldarius, UniProt Q4J9J0); assay: in vitro phosphorylation, autophosphorylation; format: biochemical; details: 1 mM MnCl2, pH 8, 55°C; labelled compound
T2 construct: gene Saci_1193; purified kinase; expression in E. coli Rosetta (DE3)/pLysS, construct details in earlier work
T2 sequence (Q4J9J0 1-663): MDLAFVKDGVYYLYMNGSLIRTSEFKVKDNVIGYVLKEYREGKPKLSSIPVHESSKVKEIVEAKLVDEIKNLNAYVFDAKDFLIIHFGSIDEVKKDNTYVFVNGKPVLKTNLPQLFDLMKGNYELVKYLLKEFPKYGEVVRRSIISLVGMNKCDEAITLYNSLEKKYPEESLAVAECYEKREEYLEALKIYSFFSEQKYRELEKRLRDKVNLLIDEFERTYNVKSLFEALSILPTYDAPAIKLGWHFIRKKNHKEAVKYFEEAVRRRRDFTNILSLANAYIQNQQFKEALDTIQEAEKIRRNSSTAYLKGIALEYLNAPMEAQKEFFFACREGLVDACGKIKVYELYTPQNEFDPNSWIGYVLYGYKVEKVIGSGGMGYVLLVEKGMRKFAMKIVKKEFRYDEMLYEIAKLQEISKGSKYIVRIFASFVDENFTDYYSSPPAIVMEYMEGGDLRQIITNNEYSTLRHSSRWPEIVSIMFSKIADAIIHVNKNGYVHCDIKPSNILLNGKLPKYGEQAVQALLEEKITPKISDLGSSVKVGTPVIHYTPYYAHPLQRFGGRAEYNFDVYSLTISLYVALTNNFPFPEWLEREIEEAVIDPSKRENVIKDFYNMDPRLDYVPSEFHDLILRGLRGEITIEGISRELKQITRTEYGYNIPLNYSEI

SaUspA = molecular target: T3, SaUspA (Sulfolobus acidocaldarius, UniProt Q4JAC8); assay: Ni-NTA co-purification with PP2A-his, Western blot; details: 1 mM ATP, 5 mM MgCl2, pH 8; ATP increases binding to PP2A
T3 construct: gene Saci_0887
T3 sequence (Q4JAC8 1-128): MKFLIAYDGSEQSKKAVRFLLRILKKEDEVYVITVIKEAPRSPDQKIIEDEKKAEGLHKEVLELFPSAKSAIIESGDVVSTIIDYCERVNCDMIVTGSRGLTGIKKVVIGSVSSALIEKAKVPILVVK

[1] = molecular target: the molecule itself; assay: SEC; purified Strep II-tagged SaUspA on a Superdex 200 10/300 GL column in lysis buffer (50 mM Tris pH8, 150 mM NaCl); standards of 158, 44, 17 and 1.35 kDa; peak at about 30 kDa against 16.2 kDa for the monomer

Molecule | in vitro phosphorylation, autophosphorylation (ArnD) | in vitro phosphorylation, autophosphorylation (ArnC) | Ni-NTA co-purification with PP2A-his, Western blot (SaUspA) | stoichiometry N [1]
Nc1ncnc2c1ncn2[C@@H]1O[C@H](COP(=O)(O)OP(=O)(O)OP(=O)(O)O)[C@@H](O)[C@H]1O [ATP] | autophosphorylation was detected for both ArnC and ArnD | autophosphorylation was detected for both ArnC and ArnD | This indicated that ATP-binding of SaUspA enhanced its interaction with PP2A | –
C-terminally StrepII-tagged SaUspA (universal stress protein UspA of Sulfolobus acidocaldarius, Saci_0887) (natural protein, UniProt Q4JAC8 1-128, looked up, SaUspA (UspA, Saci_0887), universal stress protein of Sulfolobus acidocaldarius; printed molecular weight 16.2 kDa; Made nucleotide free by ammonium sulfate precipitation; in some samples pre-incubated with 1 mM ATP and 5 mM MgCl2; also called SaUspA-Strep; SaUspA^WT; not shown: StrepII, C-terminal, kept) MKFLIAYDGSEQSKKAVRFLLRILKKEDEVYVITVIKEAPRSPDQKIIEDEKKAEGLHKEVLELFPSAKSAIIESGDVVSTIIDYCERVNCDMIVTGSRGLTGIKKVVIGSVSSALIEKAKVPILVVK | – | – | – | 2
